Laboratory results: paper PMC11833736 (ACS Pharmacology & Translational Science, 2025)
“And” between values parts separate entries of the source, which are not always exact repeats. Equal entries are not always repeated.

What was measured:
[1] = test system: SH-SY5Y cells; assay: Intracellular Ca content by ICP-MS, dark or green light; type: cell-based; conditions: kept in the dark
Experimental: Six hours after compound addition, the cells were irradiated with green light or kept in the dark. Intracellular Ca^2+ levels were then assessed by ICP-MS 24 h after light activation. The NMDA and α-amino-3-hydroxy-5-methyl-4-isoxazole propionic acid (AMPA) receptors being glutamate-gated cation channels allow for an increase of calcium permeability of the neuron membrane; we also used L-glutamic acid (GA, 10 μM), a known NMDA and AMPA activator, as positive control in this assay.
(§1) 1 mL of SH-SY5Y cells were seeded in 12-well plates (Greiner, No. 665180; 500.000 cells per well). […] After an additional 24 h of incubation, the cells were trypsined, collected, and centrifuged. The resulting cell pellet was dissolved in 1 mL of PBS and counted via a BioRad TC20 automated cell counter. Afterward, the solution was centrifuged and washed again with PBS with subsequent centrifuging two more times. The resulting cell pellet was digested in 0.5 mL of HNO3 overnight in a hot oven (90 °C). The solution was diluted with Milli-Q water to 10 mL, and the Ru and Ca content [ppb] was measured via ICP-MS.

[2] = test system: SH-SY5Y cells; assay: Cytotoxicity, SRB end-point assay, dark or green light; type: cell-based
[3] = test system: U-87MG cells; assay: Ru cellular uptake by ICP-MS; type: in vitro ADME; conditions: 10 μM; for Ru cellular uptake: dark
Description: The cellular accumulation of Ru^2+ can provide additional information about how differences in anticancer efficacy may relate to the amount of the Ru prodrug in the cell before light activation. For instance, low uptake often leads to limited cytotoxicity due to limited access to the drug target. […] Similar results have been observed in A549 lung cancer cells previously.[56] […] For unknown reasons, it appears that the amine bridge in the i-diqa ligand facilitates the uptake of ruthenium compound [3](PF6)2.
Materials: 65% nitric acid (Suprapur, Merck) was used in the sample digestion process, while diluted 1% nitric acid (v/v) was employed as a carrying solution throughout the ICP measurements. For preparation of calibration and internal standards, National Institute of Standards and Technology (NIST)-traceable 1000 mg/L elemental standards were used (TraceCERT, Fluka). Approximately 18 MΩ cm^–1 water (Milli-Q) was employed in all sample preparation and analysis steps.
Instrumentation: Calibration standards were prepared in a Secuflow fume hood (SCALA) to prevent contamination by atmospheric particulates. The standard samples and measurement samples were analyzed for trace elements using the NexION 2000 (PerkinElmer) ICP-MS instrument equipped with a concentric glass nebulizer and a Peltier-cooled glass spray chamber. An SC2 DX autosampler (PerkinElmer) was connected to ICP-MS for sample introduction. Syngistix software for ICP-MS (v.2.5, PerkinElmer) was used for all data recording and processing. Five trace elemental calibration standards for ICP-MS analysis were prepared using NIST-traceable 1000 mg/L Ru standards: 0, 1, 5, 20, and 100 μg/L. Samples were analyzed without dilution in the original delivery containers to minimize the possibility of contamination. Here, 10 μg/L Rh and In were used as internal standards. To check the calibration, samples were analyzed with a blank measurement and a repeat measurement with one of the calibration standards.
Sample preparation: 1 mL of U-87MG cells were seeded in 12-well plates (Greiner, No. 665180; 400.000 cells per well). […] Afterward, the cells were trypsined, collected, and centrifuged. The resulting cell pellet was dissolved in 1 mL of PBS and counted via a BioRad TC20 automated cell counter. Afterward, the solution was centrifuged and washed again with PBS with subsequent centrifuging. This washing step was repeated twice. The resulting cell pellet was digested in 0.5 mL of 65% HNO3 overnight in a hot oven (90 °C). The solution was diluted with Milli-Q water to 10 mL, and the Ru content [ppb] was measured by ICP-MS.

[4] = test system: SH-SY5Y cells; assay: Ru cellular uptake by ICP-MS, dark or green light; type: in vitro ADME; conditions: 20 μM, kept in the dark
Experimental: These surprising results led us to further investigate whether the uptake of the respective compounds plays a pivotal role in the alternation of the proliferation. […] The complex was allowed to incubate for 24 h after irradiation before the ruthenium cellular content was analyzed by ICP-MS. […] We finally decided to incubate the SH-SY5Y cells with the EC50 values obtained from the cytotoxicity experiment using the U-87MG cell, as those procedures would allow one to observe the effect of the prodrug on the healthy neuron-like cells when treated with the phototoxic compound dose. […] Overall, cellular uptake in neuron-like SH-SY5Y cells followed the same trends as those for GBM cells U-87MG in the dark, while uptake was much higher after light activation.
as §1

[5] = target: AChE (Electrophorus electricus, UniProt O42275)
Chain of AChE (O42275 24-633): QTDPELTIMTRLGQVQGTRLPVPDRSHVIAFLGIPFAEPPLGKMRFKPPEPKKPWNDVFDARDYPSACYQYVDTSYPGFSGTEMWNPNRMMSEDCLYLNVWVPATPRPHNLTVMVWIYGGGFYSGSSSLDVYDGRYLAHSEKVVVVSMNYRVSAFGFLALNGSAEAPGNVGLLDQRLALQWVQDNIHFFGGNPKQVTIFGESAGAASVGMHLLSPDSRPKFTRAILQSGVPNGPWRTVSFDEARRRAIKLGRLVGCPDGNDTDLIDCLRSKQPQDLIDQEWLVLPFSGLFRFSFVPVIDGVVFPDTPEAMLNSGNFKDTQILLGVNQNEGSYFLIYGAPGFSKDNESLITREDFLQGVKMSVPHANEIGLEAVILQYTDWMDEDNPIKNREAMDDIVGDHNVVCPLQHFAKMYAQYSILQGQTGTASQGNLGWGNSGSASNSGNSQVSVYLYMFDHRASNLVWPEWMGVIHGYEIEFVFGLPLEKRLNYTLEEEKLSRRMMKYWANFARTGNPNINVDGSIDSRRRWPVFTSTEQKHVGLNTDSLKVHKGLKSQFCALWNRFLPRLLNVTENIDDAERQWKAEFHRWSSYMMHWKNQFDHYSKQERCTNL
Description: Among all enzymes involved in transmembrane signaling, another important one is AChE. In a modified procedure (for further details, see the Experimental Section), we checked whether the ruthenium complexes were able to inhibit AChE in the dark and after light activation. The colorimetric assay used Ellman’s reagent. […] The conversion of 5,5′-dithiobis(2-nitrobenzoic acid) (DTNB) to yellow 2-nitro-5-thiobenzoate (TNB) initiated by the addition of acetylthiocholine was then detected by UV–vis spectroscopy every 5 min for a total time of […]. […] The solution was further diluted 1:50 in 50 mM Tris buffer, pH = 8 (10 μL in 490 μL), and then placed in 4.5 mL of 50 mM Tris buffer, pH = 8. […] 50 μL of the enzyme and 50 μL of the complex solution were added to a 96-well plate in triplicates. […] Meanwhile, a 10 mM solution of acetylthiocholine iodide and 10 mM DTNB was prepared. After the respective time, in each well, 5 μL of the acetylthiocholine iodide and DTNB mixture was added. The absorbance was read at a microplate Tecan reader at 410 nm every 5 min for in total 40 min.

[6] = Stability in the dark in the presence of L-glutathione (UV-vis); type: physicochemical; conditions: water, 37 °C, 500 μM L-glutathione, spectra after 2 and 24 h
Experimental: The synthesis and characterization of all three complexes have been described earlier and can be found in refs ([56]) and ([57]). In water or OptiMEM cell medium, the complexes were also previously found to be stable in the dark for at least 24 h at 37 °C. Upon blue or green light irradiation (λ = 452 or 517 nm), they are activated by photosubstitution of the thioether ligand to afford the aqua ruthenium complex and the free thioether ligand.[56] […] The UV–vis spectra were then recorded after 2 and 24 h separately. […] Additionally, we could not observe any color change, which is typical when one of the ligands is exchanged against another one.
UV–vis spectroscopy experiments were performed on a Cary 60 Varian spectrometer equipped with a temperature control set to 310 K and a magnetic stirrer. The measurements were performed in a quartz cuvette containing 3 mL of solution. […] Then, the UV–vis spectrum was recorded without the presence of GSH. After 4 min, GSH was added (0.5 mM) and UV–vis spectra were recorded directly after and after 2 and 24 h, while the vial was kept in the dark and at 37 °C.

[7] = test system: U-87MG glioblastoma cells; assay: Cytotoxicity, SRB end-point assay, dark or green light; conditions: read-out: EC50,D, kept in the dark, 24 h + 48 h incubation, normoxic (21% O2)
[8] = test system: A375 skin melanoma; design: method as in PMID 31625740, PMID 29220545, PMID 34378103; conditions: cited from earlier work
[9] = test system: A549 lung cancer cell lines; design: method as in PMID 31625740, PMID 29220545, PMID 34378103; conditions: cited from earlier work
[10] = test system: U-87MG glioblastoma cells; assay: Cytotoxicity determined by MTT (3 mg/mL); type: cell-based; conditions: Homo sapiens, dark

For `N[C@@H](CCC(=O)O)C(=O)O` [L-glutamic acid, reference compound], the “Ca uptake, Dark” value ([1]; 10 μM) was 322.84± 53 ng Ca/mio. cells and the “Ca uptake, Dark” value ([1]; 10 μM, listed as Glutamate) was 322 ng Ca/mio. cells.

In the case of `CSCCO.F[P-](F)(F)(F)(F)F.F[P-](F)(F)(F)(F)F.[Ru+2].c1ccc(-c2cccc(-c3ccccn3)n2)nc1.c1ccc(-c2ccccn2)nc1` [[1](PF6)2], the “concentration required to block cell growth” value ([2]; in the dark) is reported as > 40 µM, the EC50 ([2]; kept in the dark, SRB, normoxic (21% O2)) is reported as > 100 µM and the Uptake in % ([3]; 6 h) is reported as 0.56%. The Ru cellular uptake ([3]; 6 h incubation) was 0.6 ng Ru/mio. cells and 0.60 ± 0.38 ng Ru/mio. cells, the Uptake in % ([3]; 24 h) was 0.43% and the Ru cellular uptake ([3]; 24 h incubation) was 0.42 ng Ru/mio. cells and 0.42 ± 0.11 ng Ru/mio. cells. For the same compound, the overall uptake ([3]; one figure given for 6 and 24 h) was 0.5%, the “Ru uptake, Dark” value [4] was 0.40 ± 0.25 ng Ru/mio. cells and 0.4 ng Ru/mio. cells and the “Ca uptake, Dark” value ([1]; 20 μM) was 467.78 ± 122 ng Ca/mio. cells and 467 ng Ca/mio. cells. The PI ([5]; AChE, IC50 dark / IC50 green light) was >2.2, the IC50 ([5]; read-out: IC50,D, isolated AChE, 30 min in the dark, read 35 min after DTNB addition) was > 15 µM and the “stability in the dark with GSH (UV-vis, in words)” value [6] was “no change suggesting ligand exchange on ruthenium was observed”. The EC50 [7] was > 100 µM.

In the case of `O.[Ru+2].c1ccc(-c2cccc(-c3ccccn3)n2)nc1.c1ccc(-c2ccccn2)nc1` [[4]^2+, [Ru(tpy)(bpy)(OH2)]^2+], the “toxicity (in words)” value [8] is given as “nontoxic” and the “toxicity (in words)” value [9] is given as “nontoxic”.

In the case of `Cn1nnc2c(C(N)=O)ncn2c1=O` [temozolomide], the EC50 [10] is reported as > 100 µM.
